Source: ChEMBL document CHEMBL2203035, “Synthesis and docking studies of novel antitumor benzimidazoles” (Bioorg Med Chem, 2012)

Experiments:
[1] = target: Urokinase plasminogen activator surface receptor (Homo sapiens, UniProt Q03405); assay: Binding affinity to uPAR
[2] = system: Raji; assay: Inhibition of tumor promotion in human Raji cells assessed as TPA-induced Epstein-Barr virus early antigen activation at 10 mol ratio/TPA after 48 hrs by indirect immunofluorescence analysis relative to TPA alone; type: functional; design: scale not given: the % may be the effect or the level left
[3] = system: Raji; assay: Inhibition of tumor promotion in human Raji cells assessed as TPA-induced Epstein-Barr virus early antigen activation at 100 mol ratio/TPA after 48 hrs by indirect immunofluorescence analysis relative to TPA alone; type: functional; design: scale not given: the % may be the effect or the level left
[4] = system: Raji; assay: Inhibition of tumor promotion in human Raji cells assessed as TPA-induced Epstein-Barr virus early antigen activation at 500 mol ratio/TPA after 48 hrs by indirect immunofluorescence analysis relative to TPA alone; type: functional; design: scale not given: the % may be the effect or the level left
[5] = system: Raji; assay: Inhibition of tumor promotion in human Raji cells assessed as TPA-induced Epstein-Barr virus early antigen activation at 1000 mol ratio/TPA after 48 hrs by indirect immunofluorescence analysis relative to TPA alone; type: functional; design: scale not given: the % may be the effect or the level left
[6] = system: A549; assay: Cytotoxicity against human A549 cells after 72 hrs by alamar blue assay; type: functional, cell-based; details: A549, 72 h
[7] = system: MCF7; assay: cells; details: Homo sapiens, MCF7, 48 h
Description: Cytotoxicity against human MCF7 cells after 48 hrs by sulforhodamine B assay

[8] = system: A549; assay: Downregulation of uPA protein expression in human A549 cell extract at 1.10 uM after 48 hrs by ELISA; type: functional
[9] = system: A549; assay: Downregulation of uPA protein expression in human A549 cell extract at 0.55 uM after 48 hrs by ELISA; type: functional
[10] = system: A549; assay: Downregulation of uPA protein expression in human A549 cell extract at 0.275 uM after 48 hrs by ELISA; type: functional
[11] = system: A549; assay: Downregulation of uPA protein expression in human A549 cell extract at 0.137 uM after 48 hrs by ELISA; type: functional
[12] = system: MCF7; assay: Downregulation of uPA protein expression in human MCF7 cell extract at 0.35 uM after 48 hrs by ELISA (reference value: 1 1.4000 +/- 1.40 ng/ml); type: functional
[13] = system: MCF7; assay: Downregulation of uPA protein expression in human MCF7 cell extract at 0.175 uM after 48 hrs by ELISA (reference value: 1 1.4000 +/- 1.40 ng/ml); type: functional
[14] = system: MCF7; assay: Downregulation of uPA protein expression in human MCF7 cell extract at 0.087 uM after 48 hrs by ELISA (reference value: 1 1.4000 +/- 1.40 ng/ml); type: functional
[15] = system: A549; assay: Downregulation of uPA protein expression in human A549 cell extract at 1.10 uM after 48 hrs by ELISA (reference value: 11.0000 +/-1.60 ng/ml); type: functional
[16] = system: A549; assay: Downregulation of uPA protein expression in human A549 cell extract at 0.55 uM after 48 hrs by ELISA (reference value: 11.0000 +/-1.60 ng/ml); type: functional
[17] = system: A549; assay: Downregulation of uPA protein expression in human A549 cell extract at 0.275 uM after 48 hrs by ELISA (reference value: 11.0000 +/-1.60 ng/ml); type: functional
[18] = system: A549; assay: Downregulation of uPA protein expression in human A549 cell extract at 0.137 uM after 48 hrs by ELISA (reference value: 11.0000 +/-1.60 ng/ml); type: functional
[19] = system: MCF7; assay: Downregulation of uPA protein expression in human MCF7 cell extract at 0.70 ug/well after 48 hrs by ELISA (reference value: 1 1.4000 +/- 1.40 ng/ml)
[20] = system: MCF7; assay: Downregulation of uPA protein expression in human MCF7 cell extract at 0.60 uM after 48 hrs by ELISA (reference value: 1 1.4000 +/- 1.40 ng/ml); type: functional
[21] = system: MCF7; assay: Downregulation of uPA protein expression in human MCF7 cell extract at 0.30 uM after 48 hrs by ELISA (reference value: 1 1.4000 +/- 1.40 ng/ml); type: functional
[22] = system: MCF7; assay: Downregulation of uPA protein expression in human MCF7 cell extract at 0.15 uM after 48 hrs by ELISA (reference value: 1 1.4000 +/- 1.40 ng/ml); type: functional
[23] = system: MCF7; assay: Downregulation of uPA protein expression in human MCF7 cell extract at 0.075 uM after 48 hrs by ELISA (reference value: 1 1.4000 +/- 1.40 ng/ml); type: functional
[24] = system: A549; assay: Downregulation of uPA protein expression in human A549 cell extract at 0.40 uM after 48 hrs by ELISA (reference value: 11.0000 +/-1.60 ng/ml); type: functional
[25] = system: A549; assay: Downregulation of uPA protein expression in human A549 cell extract at 0.20 uM after 48 hrs by ELISA (reference value: 11.0000 +/-1.60 ng/ml); type: functional
[26] = system: A549; assay: Downregulation of uPA protein expression in human A549 cell extract at 0.10 uM after 48 hrs by ELISA (reference value: 11.0000 +/-1.60 ng/ml); type: functional
[27] = system: A549; assay: Downregulation of uPA protein expression in human A549 cell extract at 0.05 uM after 48 hrs by ELISA (reference value: 11.0000 +/-1.60 ng/ml); type: functional

Chain of Urokinase plasminogen activator surface receptor (Q03405 whole entry): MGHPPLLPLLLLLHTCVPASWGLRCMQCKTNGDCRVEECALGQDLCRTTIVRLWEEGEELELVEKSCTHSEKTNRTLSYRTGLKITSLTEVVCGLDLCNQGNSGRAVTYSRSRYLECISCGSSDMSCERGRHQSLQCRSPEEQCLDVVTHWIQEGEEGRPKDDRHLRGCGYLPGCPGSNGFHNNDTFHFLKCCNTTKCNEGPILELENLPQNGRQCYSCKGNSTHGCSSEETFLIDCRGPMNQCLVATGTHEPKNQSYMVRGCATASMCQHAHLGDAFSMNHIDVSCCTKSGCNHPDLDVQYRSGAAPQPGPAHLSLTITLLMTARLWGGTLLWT

Row | Ki [1] | IC50 [7] | Compound | Activity [2] | Activity [3] | Activity [4] | Activity [5] | IC50 [6] | other results
1 | 20.8 nM |  | Nc1nc2ccccc2[nH]c1=O | 100% | 78.1% | 46.3% | 12.6% | 9100 nM | 
2 | 0.00153 nM | 1.62 µg/well | Nc1c(-c2nc3ccccc3[nH]2)cc(-c2ccccc2)n1-c1nc2ccccc2[nH]1 | 100% | 80% | 48.2% | 16.3% | 7700 nM | 
3 | 0.00217 nM | 0.972 µg/well | Nc1c(-c2nc3ccccc3[nH]2)cc(-c2ccccc2)n1Cc1nc2ccccc2[nH]1 | 100% | 82.6% | 48.3% | 18.7% | 5100 nM | 
4 | 1.33 nM | 1.39 µg/well | O=C1NC2=Nc3ccccc3NC2=Nc2ccccc21 | 100% | 86.3% | 54.6% | 22.6% | 13200 nM | 
5 | 0.00636 nM | 1.66 µg/well | O=C1NC2=Nc3ccccc3N(Cc3nc4ccccc4[nH]3)C2=Nc2ccccc21 | 100% | 85.6% | 53.1% | 20.5% | 8500 nM | 
6 | 0.0017 nM | 0.934 µg/well | CCOC(=O)Cn1c(CN2C3=Nc4ccccc4C(=O)NC3=Nc3ccccc32)nc2ccccc21 | 100% | 74.4% | 43.7% | 10.3% | 8400 nM | 
7 | 0.296 nM |  | N#CC(C#N)CC(=O)c1ccccc1 |  |  |  |  | 9700 nM | 
8 | 0.0333 nM |  | N#Cc1cc(-c2ccccc2)n(-c2ccccn2)c1N |  |  |  |  | 32000 nM | 
9 | 0.00759 nM |  | N#Cc1cc(-c2ccccc2)n(-c2ccncc2)c1N |  |  |  |  | 10700 nM | 
10 | 0.00411 nM |  | N#Cc1cc(-c2ccccc2)n(-c2cccc(Br)c2)c1N |  |  |  |  | 13000 nM | 
11 | 0.00327 nM |  | N#Cc1cc(-c2ccccc2)n(-c2ccc(Br)cc2)c1N |  |  |  |  | 4600 nM | 
12 | 0.00227 nM |  | N#Cc1cc(-c2ccccc2)n(-c2cccc(Cl)c2)c1N |  |  |  |  | 8000 nM | 
13 | 0.00329 nM |  | N#Cc1cc(-c2ccccc2)n(-c2ccc(Cl)cc2)c1N |  |  |  |  | 7700 nM | 
14 | 0.00302 nM | 1.28 µg/well | N#Cc1cc(-c2ccccc2)n(-c2nc3ccccc3[nH]2)c1N | 100% | 83.5% | 49.6% | 19.7% | 12100 nM | 
15 | 0.00653 nM | 0.934 µg/well | Nc1c(-c2nc3ccccc3[nH]2)cc(-c2ccccc2)n1-c1ccccn1 | 100% | 79.1% | 47.3% | 15.9% | 8000 nM | 
16 | 0.001 nM | 0.705 µg/well | Nc1c(-c2nc3ccccc3[nH]2)cc(-c2ccccc2)n1-c1ccncc1 | 100% | 78.6% | 46.9% | 15.3% | 1100 nM | Activity [8]: 75%; Activity [9]: 56%; Activity [10]: 53%; Activity [11]: 44%; Activity [12]: 9 ng/mL; Activity [13]: 8.7 ng/mL; Activity [14]: 9.8 ng/mL; Activity [15]: 2.7 ng/mL; Activity [16]: 4.8 ng/mL; Activity [17]: 5.2 ng/mL; Activity [18]: 6.2 ng/mL; Activity [19]: 9.4 ng/mL
17 | 0.012 nM | 2.12 µg/well | Nc1c(-c2nc3ccccc3[nH]2)cc(-c2ccccc2)n1-c1cccc(Br)c1 | 100% | 84% | 49.9% | 19.2% | 13500 nM | 
18 | 0.011 nM | 0.82 µg/well | Nc1c(-c2nc3ccccc3[nH]2)cc(-c2ccccc2)n1-c1ccc(Br)cc1 | 100% | 83.2% | 48% | 18.9% | 12000 nM | 
19 | 0.0044 nM | 1.7 µg/well | Nc1c(-c2nc3ccccc3[nH]2)cc(-c2ccccc2)n1-c1cccc(Cl)c1 | 100% | 80.1% | 48.3% | 17.8% | 7000 nM | 
20 | 0.00445 nM | 0.934 µg/well | Nc1c(-c2nc3ccccc3[nH]2)cc(-c2ccccc2)n1-c1ccc(Cl)cc1 | 100% | 85.6% | 50.3% | 20.1% | 9900 nM | 
21 |  |  | COc1cccc2c1C(=O)c1c(O)c3c(c(O)c1C2=O)C[C@@](O)(C(=O)CO)C[C@@H]3O[C@H]1C[C@H](N)[C@H](O)[C@H](C)O1 [DOXORUBICIN] |  |  |  |  |  | Activity [20]: 2.75 ng/mL; Activity [21]: 3 ng/mL; Activity [22]: 3.2 ng/mL; Activity [23]: 3.4 ng/mL
22 |  |  | CO[C@@]12[C@H](COC(N)=O)C3=C(C(=O)C(C)=C(N)C3=O)N1C[C@@H]1N[C@@H]12 [MITOMYCIN] |  |  |  |  |  | Activity [24]: 2.4 ng/mL; Activity [25]: 2.6 ng/mL; Activity [26]: 3.3 ng/mL; Activity [27]: 4.3 ng/mL
23 |  |  | CC1(C)CC[C@]2(C(=O)O)CC[C@]3(C)C(=CC[C@@H]4[C@@]5(C)CC[C@H](O)C(C)(C)[C@@H]5CC[C@]43C)[C@@H]2C1 [OLEANOLIC_ACID] | 100% | 80% | 30% | 12.7% |  | 
24 |  | 1.82 µg/well | CC/C(=C(\c1ccccc1)c1ccc(OCCN(C)C)cc1)c1ccccc1 [TAMOXIFEN] |  |  |  |  |  | 
